The results in this text go back to patent publication US7078424B2, “N-linked sulfonamides of N-heterocyclic carboxylic acids or carboxylic acid isosteres” (GPI NIL Holdings, Inc., priority 1998, dated 2006).

The test system of this assay is dopaminergic neurons. The assay can be described thus: MPTP model of Parkinson's Disease in mice (MPTP Neurodegenerative Model). The class given is in vivo. The settings on record: recovery of TH-stained dopaminergic neurons in striatum; male CD1 mice, MPTP 30 mg/kg i.p. 5 days; test compound 4 mg/kg s.c. concurrent with MPTP plus 5 further days; sacrificed at 18 days. On the procedure:
MPTP lesioning of dopaminergic neurons in mice is used as an animal model of Parkinson's Disease. Four week old male CD1 white mice are dosed i.p. with 30 mg/kg of MPTP for 5 days. Test compounds (4 mg/kg), or vehicle, are administered s.c. along with the MPTP for 5 days, as well as for an additional 5 days following cessation of MPTP treatment. At 18 days following MPTP treatment, the animals are sacrificed and the striata dissected and perfusion-fixed. Immunostaining is performed on saggital and coronal brain sections using anti-tyrosine hydroxylase […] to quantitate survival and recovery of dopaminergic neurons. In animals treated with MPTP and vehicle, a substantial loss of functional dopaminergic terminals is observed as compared to non-lesioned animals. Lesioned animals receiving test compounds show a significant recovery of TH-stained dopaminergic neurons. This model presents quantitation for the recovery of TH-positive dopaminergic neurons in the striatum of animals receiving the compounds of the present invention. […]
Percent striatal innervation density was quantitated is in brain sections with an anti-tyrosine hydroxylase immunoglobulin, which is indicative of functional dopaminergic neurons. […]

Regarding `O=C(O)[C@@H]1CCCN1S(=O)(=O)Cc1ccccc1` [Compound A, (2S)-N-(benzylsulfonyl)-2-pyrrolidinecarboxylic Acid], the “% Recovery” value is 24.4%.
